Our source for the Ki, IC50 and Drug uptake values is ChEMBL document CHEMBL1914287, “Synthesis and in vivo evaluation of [18F]N-(2-benzofuranylmethyl)-N'-[4-(2-fluoroethoxy)benzyl]piperazine, a novel σ1 receptor PET imaging agent” (Bioorg Med Chem Lett, 2011).

The term Ki denotes the dissociation constant of the complex between target and ligand, obtained from inhibition or displacement. By IC50 is commonly meant the concentration that gives 50% inhibition.

Data set [1] in a line: Binding affinity to sigma 2 receptor by radioligand displacement assay. (In a radioligand displacement assay an active substance lowers the binding of a labelled ligand.)
The target of data set [2] is T1, Sigma non-opioid intracellular receptor 1 (Homo sapiens, UniProt Q99720). Nature of the data set: Binding affinity to sigma 1 receptor by radioligand displacement assay.
A short description of data set [3]: Binding affinity to sigma 2 receptor in guinea pig brain membrane. The data set is classed as cell membranes, Cavia porcellus.
In data set [4] the target is Sigma non-opioid intracellular receptor 1 (Cavia porcellus, UniProt Q60492). Nature of the data set: Binding affinity to sigma 1 receptor in guinea pig brain membrane. The data set is classed as cell membranes.
In data set [5] the test system is Rhesus monkey. Nature of the data set: Inhibition of sigma 2 receptor in conscious monkey brain at 220 to 802 MBq, iv. The data set is classed as functional, organism-based. To be noted: Macaca mulatta.
The subject of data set [6] is Rhesus monkey. The data set can be described thus: Inhibition of sigma 1 receptor in conscious monkey brain at 220 to 802 MBq, iv. To be noted: Macaca mulatta. Format: functional, organism-based.
The nature of data set [7]: Drug uptake in cerebellum of baboon brain at 100 MBq, iv measured within 5 mins by microPET imaging. The data set is classed as ADME, organism-based. To be noted: papio hamadryas, in vivo.
A short description of data set [8]: Drug uptake in cortex of baboon brain at 100 MBq, iv measured within 5 mins by microPET imaging. To be noted: papio hamadryas, in vivo. The data set is classed as ADME, organism-based.
Data set [9] can be described thus: Drug uptake in cerebellum of baboon brain at 100 MBq, iv administered 5 mins after haloperidol challenge measured within 3 mins by microPET imaging. Format: ADME, organism-based. Conditions: papio hamadryas, in vivo; call rule not given here.
Data set [10] is described as follows: Drug uptake in cerebellum of baboon brain at 100 MBq, iv administered 5 mins after haloperidol challenge measured within 5 mins by microPET imaging. The data set is classed as ADME, organism-based. Conditions: papio hamadryas, in vivo.
The nature of data set [11]: Drug uptake in right striatum of baboon brain at 100 MBq, iv administered 5 mins after haloperidol challenge measured after 60 mins by microPET imaging. To be noted: papio hamadryas, in vivo, 1 h. Format: ADME, organism-based.
The nature of data set [12]: Drug uptake in left striatum of baboon brain at 100 MBq, iv measured within 5 mins by microPET imaging. The data set is classed as ADME, organism-based. To be noted: papio hamadryas, in vivo.
Data set [13] can be described thus: Drug uptake in cerebellum of baboon brain at 100 MBq, iv administered 5 mins after haloperidol challenge measured after 60 mins by microPET imaging. The data set is classed as ADME, organism-based. Conditions: papio hamadryas, in vivo, 1 h.
Data set [14] is described as follows: Drug uptake in left striatum of baboon brain at 100 MBq, iv administered 5 mins after haloperidol challenge measured within 5 mins by microPET imaging. The data set is classed as ADME, organism-based. Conditions: papio hamadryas, in vivo.
A short description of data set [15]: Drug uptake in cortex of baboon brain at 100 MBq, iv administered 5 mins after haloperidol challenge measured within 3 mins by microPET imaging. To be noted: papio hamadryas, in vivo. Format: ADME, organism-based.
Data set [16] is described as follows: Drug uptake in right striatum of baboon brain at 100 MBq, iv measured after 60 mins by microPET imaging. Format: ADME, organism-based. To be noted: papio hamadryas, in vivo, 1 h.
Data set [17] in a line: Drug uptake in cortex of baboon brain at 100 MBq, iv measured after 60 mins by microPET imaging. Format: ADME, organism-based. Conditions: papio hamadryas, in vivo, 1 h.
Data set [18] is described as follows: Drug uptake in right striatum of baboon brain at 100 MBq, iv administered 5 mins after haloperidol challenge measured within 5 mins by microPET imaging. To be noted: papio hamadryas, in vivo. The data set is classed as ADME, organism-based.
Data set [19] can be described thus: Drug uptake in left striatum of baboon brain at 100 MBq, iv measured after 60 mins by microPET imaging. The data set is classed as ADME, organism-based. To be noted: papio hamadryas, in vivo, 1 h.
A short description of data set [20]: Drug uptake in thalamus of baboon brain at 100 MBq, iv administered 5 mins after haloperidol challenge measured within 5 mins by microPET imaging. Format: ADME, organism-based. Conditions: papio hamadryas, in vivo.
Data set [21] can be described thus: Drug uptake in thalamus of baboon brain at 100 MBq, iv measured after 60 mins by microPET imaging. The data set is classed as ADME, organism-based. Conditions: papio hamadryas, in vivo, 1 h.
A short description of data set [22]: Drug uptake in thalamus of baboon brain at 100 MBq, iv administered 5 mins after haloperidol challenge measured within 3 mins by microPET imaging. Conditions: papio hamadryas, in vivo. Format: ADME, organism-based.
The nature of data set [23]: Drug uptake in thalamus of baboon brain at 100 MBq, iv administered 5 mins after haloperidol challenge measured after 60 mins by microPET imaging. Format: ADME, organism-based. To be noted: papio hamadryas, in vivo, 1 h.
The nature of data set [24]: Drug uptake in cerebellum of baboon brain at 100 MBq, iv measured after 60 mins by microPET imaging. Format: ADME, organism-based. To be noted: papio hamadryas, in vivo, 1 h.
Data set [25] is described as follows: Drug uptake in cortex of baboon brain at 100 MBq, iv administered 5 mins after haloperidol challenge measured within 5 mins by microPET imaging. The data set is classed as ADME, organism-based. Conditions: papio hamadryas, in vivo.
Data set [26] in a line: Drug uptake in thalamus of baboon brain at 100 MBq, iv measured within 5 mins by microPET imaging. Format: ADME, organism-based. Conditions: papio hamadryas, in vivo.
Data set [27] can be described thus: Drug uptake in right striatum of baboon brain at 100 MBq, iv administered 5 mins after haloperidol challenge measured within 3 mins by microPET imaging. Format: ADME, organism-based. Conditions: papio hamadryas, in vivo.
Data set [28] in a line: Drug uptake in left striatum of baboon brain at 100 MBq, iv administered 5 mins after haloperidol challenge measured within 3 mins by microPET imaging. Format: ADME, organism-based. Conditions: papio hamadryas, in vivo.
Data set [29] in a line: Drug uptake in left striatum of baboon brain at 100 MBq, iv administered 5 mins after haloperidol challenge measured after 60 mins by microPET imaging. The data set is classed as ADME, organism-based. To be noted: papio hamadryas, in vivo, 1 h.
A short description of data set [30]: Drug uptake in right striatum of baboon brain at 100 MBq, iv measured within 5 mins by microPET imaging. Conditions: papio hamadryas, in vivo. The data set is classed as ADME, organism-based.
Data set [31] in a line: Drug uptake in cortex of baboon brain at 100 MBq, iv administered 5 mins after haloperidol challenge measured after 60 mins by microPET imaging. The data set is classed as ADME, organism-based. To be noted: papio hamadryas, in vivo, 1 h.
The nature of data set [32]: Binding affinity to sigma 2 receptor.
In data set [33] the target is T1, Sigma non-opioid intracellular receptor 1. Nature of the data set: Binding affinity to sigma 1 receptor.

T1 sequence (Q99720 whole entry): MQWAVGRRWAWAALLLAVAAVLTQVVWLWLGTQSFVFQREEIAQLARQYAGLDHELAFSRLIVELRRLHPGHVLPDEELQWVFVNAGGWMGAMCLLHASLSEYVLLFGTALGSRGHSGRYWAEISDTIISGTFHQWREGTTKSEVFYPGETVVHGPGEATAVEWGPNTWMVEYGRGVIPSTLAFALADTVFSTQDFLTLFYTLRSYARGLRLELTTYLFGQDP
Chain of Sigma non-opioid intracellular receptor 1 (Cavia porcellus, UniProt Q60492) (Q60492 whole entry): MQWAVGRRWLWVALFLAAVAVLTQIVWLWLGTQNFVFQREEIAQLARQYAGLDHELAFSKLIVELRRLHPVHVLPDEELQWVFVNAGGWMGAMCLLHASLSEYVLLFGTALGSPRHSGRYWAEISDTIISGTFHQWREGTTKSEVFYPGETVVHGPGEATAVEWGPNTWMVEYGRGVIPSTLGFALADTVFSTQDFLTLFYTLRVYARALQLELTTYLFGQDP

In the case of `FCCC1OC2(CCN(Cc3ccccc3)CC2)c2ccccc21` (stereo not drawn), the Ki in data set [1] was determined as 785 nM; in data set [2], 0.59 nM.
As to `O=C(NC1CCN(Cc2ccccc2)CC1)c1ccccc1F`, the results for the Ki in [3] and in [4] were 406 nM and 3.39 nM, respectively.
`COc1cc(CCN2CCN(CCCc3ccc(F)cc3)CC2)ccc1OCCF`: the IC50 amounted to 6.8 nM in the data set on Rhesus monkey [5] and 3.1 nM in the data set with Rhesus monkey [6].
As to `[18F]CCOc1ccc(CN2CCN(Cc3cc4ccccc4o3)CC2)cc1`, the Drug uptake entry in data set [7] is reported as “Active”; in [8] it was “Active”; in [9] it was “Active”; in data set [10] it was “Not Active”; in [11] it was “Not Active”; in data set [12] it was “Active”. The Drug uptake entry in [13] was “Not Active”; in data set [14], “Not Active”; in data set [15], “Active”; in data set [16] it was “Active”; in data set [17] it was “Active”; in [18], “Not Active”. Further, the Drug uptake entry in data set [19] is recorded as “Active”; in data set [20], “Not Active”; in [21] it was “Active”; in [22], “Active”; in [23], “Not Active”; in data set [24], “Active”. The Drug uptake entry was “Not Active” in data set [25]; “Active” in [26]; “Active” in data set [27]; “Active” in [28]; “Not Active” in [29]; “Active” in [30]. Further, in data set [31], the Drug uptake result was “Not Active”.
Consider `N#Cc1ccc(OCC2CCN(CCCF)CC2)cc1`, for which the Ki was found to be 144 nM in [32] and 4.3 nM in data set [33].
